Data set [1] relates to HaCaP cell line and hypodermal cells isolated from human derived foreskin. Briefly: Biostability: cell viability (Ez-cytox). It counts as cell-based. Particulars: FIG. 5. As to the method: In order to evaluate DHPV biostability, HaCaP cell line and hypodermal cells isolated from human derived foreskin were inoculated (2×10^4 cell each) and cultured on the 24 well plate and stabilized. Then, the cells were cultured in serum free media for 24 hrs and 48 hrs.

The test system of another data set is AP-1. Briefly: AP-1 luciferase reporter gene assay in UVB-irradiated hypodermis fibroblasts. It is filed as cell-based, human. Particulars: DHPV treatment, FIG. 3B. As to the method: (§1) First, human derived hypodermis fibroblasts (hypodermis and epidermis were separated using human body derived Foreskin and the primary cell culture was used) were cultured in the DMEM medium containing 10% FBS (fetal bovine serum), and then cultured in serum free media for 24 hrs and UVB was irradiated. Next, cells were cultured in a medium containing serum or a medium containing 1-41M DHPV for 24 hrs, thereby collecting cells.
AP-1 was obtained by inoculating pGF-AP1-mCMV-EF1-Puro vector (System Biosciences, CA) and a package vector, pMD2.0G and psPAX (Addgene Inc, Cambridge, Mass.) to HEK293T cell and in 36 hrs, viral particles were obtained using […] injection filter, in order to measure activity changes by UVB irradiation through luciferase reporter gene assay. Next, it was inoculated to hypodermis fibroblasts, and cells that injection with puromycin (Sigma, MO, […]) was successes were obtained. Then the activity of AP-1 was measured by using luciferase assay kit (Promega, Madison, Wis.) after culturing cells in the same manner with the hypodermal fibroblast culturing method and treating with DHPV.
(Reporter assays use an easily measured gene product as a stand-in for the process of interest.)

In the next data set the test system is MMP-1. Briefly: MMP-1 real time PCR in UVB-irradiated human derived hypodermis fibroblasts. It is filed as cell-based. Particulars: medium containing DHPV for 24 hrs, FIG. 3A. As to the method:
as §1
In order to confirm changes of mRNA expression level of MMP-1, mRNA was obtained using RNAiso Plus (Takara Bio Inc., Shiga, Japan). Next, CDNA was synthesized and prepared using PrimeScript™ 1st Plus (Takara Bio Inc., Shiga, Japan), and real time PCR was conducted using IQ SYBR (Bio-Rad Laboratories). The primer sequences used in conducting PCR were as same as the following Table 1.
On the technique in general: Quantitative PCR measures a nucleic acid by following its amplification.

The test system of a further data set is IVL (involucrin). Briefly: Western blot of IVL (involucrin) expression in UV-irradiated human skin cells. It is filed as cell-based. As to the method:
(§2) First, aging was induced by irradiation with 0.1 J/cm^2 UV on human skin cells (hypodermis and epidermis were separated using HaCaT cell line purchased from ATCC and human body derived Foreskin, and primary cell culture was used). Next, DHPV, a metabolite of cacao, prepared in 1-1 was treated 0.5, 1 nM, respectively, and cells were obtained.
The expression level of IVL (involucrin) which is one of aging markers of epidermal cells was confirmed by Western blot. Cells were degraded using cell dissolution buffer containing protease inhibitor cocktail kit (P3100-005; GenDEPOT, Barker, Tex.), and phosphatase inhibitor (sc-45065; Santa Cruz Biotechnology, Santa Cruz, Calif.) (#9803; Cell SignalingTechnology, Danvers, Mass.). The aliquot containing 25 ug of cell lysates was separated by electrophoresis on SDS-polyacrylamide gel, and then transferred to nitrocellulose membrane (Amersham, Buckinghamshire, UK) for 180 min at 75 V and […] on a transfer buffer (25 mM Tris, 192 mM glycine, 20% [v/v] methanol [pH 8.3]). The membrane was blocked with PBS of 3% (w/v) BSA containing 0.1% (v/v) Tween-20 for 60 min, and then cultured with anti-involucrin (Santacruz, sc28557) antibody. HRP-combined goat anti-rabbit IgG (1:1000; sc 2004, SantaCruz) was used as a secondary antibody. ECL lumi Femto solution A/B (Dogen, Seoul, Korea) was used to develop blots.
On the technique in general: Immunoblotting shows a protein as a band on a membrane.

The subject of data set [2] is Involucrin (IVL) DNA promoter region. Briefly: Methylation specific PCR of IVL promoter in UV-irradiated human skin cells. It counts as cell-based. Particulars: FIG. 4. An excerpt: The aging was induced by irradiation with 0.1 J/cm^2 UV on human skin cells (hypodermis and epidermis were separated using HaCaT cell line purchased from ATCC and human body derived Foreskin, and primary cell culture was used). DNA of the cells was extracted using NucleoSin® Tissue Kit (Macherey-Nagel, Düren, Germany). The extracted DNA was quantified using Nano Drop and its quality was confirmed. In the extracted DNA, unmethylated Cytosine residues were converted to Uracil residues by treating Bisulfite using EZ DNA Methylation-Lightning™ Kit (Zymoresearch, CA, USA) for methylation analysis.
Distilled water was added to Bisulfited DNA 100 ng, primer pair (20 pmole) respectively, 1 uL, TaKaRa EpiTaq HS (5 U/μl) 0.25 uL, 10× EpiTaq PCR Buffer (Mg2^+ free) 5 uL, 25 mM MgCl2 5 uL, dNTP Mixture (2.5 mM each) 6 uL to be 50 uL of the final volume, and then after reacting for […] at 98° C., the procedure of 10 sec at 98° C., 1 min at 55° C., and 30 sec at 72° C. as 40 cycles was repeated and reacted. Then, after extending for 5 min at 72° C., the result was analyzed in 2% (w/v) agarose gel.
Methylation of IVL promoter by DHPV and relative methylation tendency were analyzed by methylation specific PCR which can relatively compare methylation or non-methylation of genes according to band intensity on the electrophoresis. […]

Another data set has as its system PFN1. Briefly: Western blot of PFN1 expression in UV-irradiated human skin cells. It counts as cell-based. Particulars: 0.1 J/cm^2 UV, DHPV 0.5, 1 nM, FIG. 2. The protocol:
as §2
The expression level of PFN1 as a novel aging marker of epidermal cells was confirmed with Western blot by the same method as the above method except using anti-PFN1 (Abcam, ab118984) antibody instead of anti-involucrin (Santacruz, sc28557) antibody and HRP-combined goat anti-mouse IgG (1:3000; sc 2005, SantaCruz) instead of HRP-combined goat anti-rabbit IgG (1:1000; sc 2004, SantaCruz).

This note sets out measurements from US20190021976A1, “COMPOSITION FOR PREVENTING, IMPROVING OR TREATING PHOTOAGING OF SKIN COMPRISING DHPV” (SUNGKWANG MEDICAL FOUNDATION, priority 2016, published 2019).

Structures are written as SMILES.

Regarding `O=C1CCC(Cc2ccc(O)c(O)c2)O1` (centres unmarked) [DHPV, 5-(3′,4′-Dihydroxyphenyl)-Γ-valerolactone], the “biostability (cell viability)” value in data set [1] is given as “shown similarly to that of control group”. In the data set with AP-1, the “activity of AP-1” value is listed as “recovered similarly to the control group”. Moreover, in the data set with MMP-1, the “mRNA expression of MMP-1” value is given as “recovered similarly to the control group”. Further, in the data set on IVL (involucrin) (based on skin cells), the “concentration exhibiting excellent skin aging-preventing function” value stood at 1 nM. Also, the “expression level of the IVL marker (amount of UV-increased IVL)” value in the data set with IVL (involucrin) (human skin cells, 0.1 J/cm^2 UV, DHPV 0.5, 1 nM, FIG. 2) is reported as “reduced in a concentration-dependent manner”. In addition, the “methylation of Involucrin (IVL) DNA promoter region induced by photoaging” value in data set [2] (0.1 J/cm^2 UV, methylation specific PCR) is “inhibited methylation”. Moreover, in data set [2] (UV treated cells when treating DHPV, electrophoresis), the “intensity of methylation band” value is recorded as “decreased”. The “expression level of the PFN1 marker” value in the data set with PFN1 is recorded as “increased in a concentration-dependent manner”.
